Values quoted from earlier work in US5585379A, “Acyclovir antiviral gel composition” (AGIS Industries (1983) Ltd., priority 1992, dated 1996).
Where two headings read alike, the source gives them in different places.

What was measured:
herpes simplex virus = conditions: in vitro and in vivo
[1] = system: herpes simplex virus infections
[2] = oral

solubility in water (words): low solubility in water
solubility in water (words) (listed as acyclovir): poor water-solubility
SMILES: Nc1nc2c(ncn2COCCO)c(=O)[nH]1 [Acyclovir, 9-(2-hydroxyethoxymethyl)guanine]
antiviral activity against herpes simplex virus (words) (herpes simplex virus): active against herpes simplex virus
antiviral activity against herpes simplex virus (words) (herpes simplex virus; listed as acyclovir): potent antiviral activity against herpes simplex virus
efficacy of topical therapy compared to oral or parenteral [1]: lacks efficacy as compared to oral or parenteral administrations
therapeutic effect on vulvar vestibulitis [2]: therapeutic effect on vulvar vestibulitis
solubility in hydrophobic solvent systems (hydrophobic solvent systems): almost totally insoluble in hydrophobic solvent systems
